#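 Briefly, cells in 96-well plates were exposed to five compound concentrations for 48 h, and endpoints were estimated by linear interpolation. At the GI50, growth is halved. Definition used: TGI = concentration required for complete inhibition of growth.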
# System: DMS 114 small cell lung
# Assay: NCI tumour cell line growth inhibition, 48 h
SMILES,GI50 [nM],TGI [µM]
CCC[CH2][Sn]1([CH2]CCC)[O]CC(COc2c(Cl)cc(Cl)cc2Cl)[O]1 (centres undefined),403,1.58
NC(CCc1ncc(C(=O)O)s1)C(=O)O (centres undefined),–,> 100
COc1cc(-c2nnc3n2NC=C(C(=O)O)S3)cc(OC)c1OC,–,> 70
C[P+](C)(C)c1ccccc1,–,> 100
O=C1c2ccccc2C(=O)N1C/C=N/NS(=O)(=O)c1ccc(Br)cc1,–,> 100
COc1cc(/C=C/C(=O)Oc2ccccc2)ccc1C(=O)O/C=C/c1ccccc1,–,> 100
CCOC(=O)C(C)(c1c(C)[nH]c2ccccc12)c1c(C)[nH]c2ccccc12,–,41.6
Cc1c(Cl)cccc1NC(=O)c1cccc([N+](=O)[O-])c1O,–,48.7
CC1COS(=O)O1 (centres undefined),–,> 100
CC1CCC(C(C)(C)c2ccccc2)C(=O)C1 (centres undefined),–,> 100
O=C1C=CC(=CC=C2C=CN(CCCCCCCCCCC(=O)NCCCCCCCCCCCC(=O)O)C=C2)C=C1,–,> 100
N#Cc1c(-c2ccco2)cc(-c2ccc(N)cc2)[nH]c1=O,–,> 100
C=CCC1(C)CCCCC1(O)CS(=O)c1ccccc1 (centres undefined),–,> 100
C1COCCSC2=C(SCCO1)SC(=C1SC3=C(SCCOCCOCCS3)S1)S2,–,> 100
CS(=O)(=O)CS(=O)(=O)OCCCl,–,339
COc1cc(/C=N\O[Si](C)(C)C(C)(C)C)ccc1O[Si](C)(C)C(C)(C)C,–,83.4
CC12CCC(=O)N1c1cccnc1N2 (centres undefined),–,> 100
COc1cc2c(cc1OC)C1Cc3cc(OC)c(OC)cc3N1CC2 (centres undefined),–,37.5
O=C1C2[C@@H](C(=O)N1c1ccc(Br)cc1)C13C(=CC2([N+](=O)[O-])[C@@H]2C(=O)N(c4ccc(Br)cc4)C(=O)[C@@H]21)c1ccccc1N3c1ccccc1 (some centres undefined),–,> 100
CCOc1ccc(N=Cc2c3ccccc3nc3ccccc23)cc1,–,> 100
Nc1ccc(C2=N/C(=C\c3cccc(N)c3)C(=O)O2)cc1,–,> 100
NCCN.O=C([O-])[O-].O=C([O-])[O-].[Co+3].[K+],> 100000,> 100
C1=NC(N(Cc2ccccc2)Cc2ccccc2)N(Cc2ccccc2)N1 (centres undefined),–,29.3

# System: MDA-N
# Assay: NCI tumour cell line growth inhibition, 48 h
row,SMILES,TGI [µM]
1,COC(=O)C(=O)CC(=O)c1cccc(OC)c1,> 100
2,c1ccc(NCCSc2nc3ccccc3s2)cc1,> 100
3,Cc1ccc2occ/c(=N\Nc3ccccc3)c2c1,> 100
4,CC(=O)NC1CONC1=O (centres undefined),> 100
5,COc1cc(/C=C/C(=O)Oc2ccccc2)ccc1C(=O)O/C=C/c1ccccc1,> 100
6,CC(Cl)CN1c2ccccc2Sc2ccc(Cl)cc21 (centres undefined),> 10
7,Oc1ccc(/C=C/c2cc(O)cc3c2C(c2cc(O)cc(O)c2)C(c2ccc(O)c(O)c2)O3)cc1 (centres undefined),56.9
8,COc1ccc(/C=C/c2cnccn2)cc1OC,> 10
9,O=[N+]([O-])c1ccc(Sc2c3ccccc3nc3ccccc23)cn1,31.8
10,CS(=O)(=O)CS(=O)(=O)OCCCl,470
11,CC(C)(C)c1cc(C(=O)/C=C/c2ccc(C(=O)O)cc2)cc(C(C)(C)C)c1,8.6
12,C=C1C(=O)OC2C1CC(OC(C)=O)/C(C)=C/CCC1(C)OC21 (centres undefined),> 100
13,Cc1c2c(C(N)=O)nccc2c(C)c2c1c1ccccc1n2Cc1ccccc1,> 100

# System: DLD-1 colon
# Assay: NCI tumour cell line growth inhibition, 48 h
SMILES,TGI [µM],GI50 [nM]
CCc1cccc(C)c1NC(=O)CC1C(=O)Nc2ccccc2S1=O (centres undefined),> 100,–
Cc1ccc(N2C(=O)N(c3ccc(C)cc3)C3(SC=NN3C)C2=O)cc1 (centres undefined),> 100,–
O=C1c2ccc3c4ccccc4n(-c4ccccc4)c3c2C(=O)N1c1ccc(Cl)cc1,> 100,–
Cc1ccc2c(c1-c1ccccc1)C(=O)OC2,> 100,–
CCC[CH2][Sn]1([CH2]CCC)[O]CC(COc2c(Cl)cc(Cl)cc2Cl)[O]1 (centres undefined),2.95,1490
NC(CCc1ncc(C(=O)O)s1)C(=O)O (centres undefined),> 100,–
CSc1ccc2c(cc1=O)[C@@H](NC(=O)c1cc(O)c(O)c(O)c1)CCc1cc(O)c(O)c(O)c1-2,55.7,–
COc1cc(-c2nnc3n2NC=C(C(=O)O)S3)cc(OC)c1OC,> 79.9,–
C[P+](C)(C)c1ccccc1,> 100,–
O=C1c2ccccc2C(=O)N1C/C=N/NS(=O)(=O)c1ccc(Br)cc1,> 100,–
COc1cc(/C=C/C(=O)Oc2ccccc2)ccc1C(=O)O/C=C/c1ccccc1,> 100,–
NC(=O)c1cn(Cc2ccccc2)c(=O)n1Cc1ccccc1,> 100,–
CCOC(=O)C(C)(c1c(C)[nH]c2ccccc12)c1c(C)[nH]c2ccccc12,75.9,–
Cc1c(Cl)cccc1NC(=O)c1cccc([N+](=O)[O-])c1O,> 100,–
CC1COS(=O)O1 (centres undefined),> 100,–
CC1CCC(C(C)(C)c2ccccc2)C(=O)C1 (centres undefined),> 100,–

SMILES,TGI [µM],GI50 [nM]
O=C1C=CC(=CC=C2C=CN(CCCCCCCCCCC(=O)NCCCCCCCCCCCC(=O)O)C=C2)C=C1,> 100,–
N#Cc1c(-c2ccco2)cc(-c2ccc(N)cc2)[nH]c1=O,> 100,–
C=CCC1(C)CCCCC1(O)CS(=O)c1ccccc1 (centres undefined),> 100,–
C1COCCSC2=C(SCCO1)SC(=C1SC3=C(SCCOCCOCCS3)S1)S2,> 100,–
CS(=O)(=O)CS(=O)(=O)OCCCl,1450,–
COc1cc(/C=N\O[Si](C)(C)C(C)(C)C)ccc1O[Si](C)(C)C(C)(C)C,> 100,–
CC12CCC(=O)N1c1cccnc1N2 (centres undefined),> 100,–
COc1cc2c(cc1OC)C1Cc3cc(OC)c(OC)cc3N1CC2 (centres undefined),> 100,–
O=C1C2[C@@H](C(=O)N1c1ccc(Br)cc1)C13C(=CC2([N+](=O)[O-])[C@@H]2C(=O)N(c4ccc(Br)cc4)C(=O)[C@@H]21)c1ccccc1N3c1ccccc1 (some centres undefined),> 100,–
CCOC(=O)C1=C(Nc2ccc(Br)cc2)OCC1=O,> 100,–
CCOc1ccc(N=Cc2c3ccccc3nc3ccccc23)cc1,> 100,–
Nc1ccc(C2=N/C(=C\c3cccc(N)c3)C(=O)O2)cc1,> 100,–
NCCN.O=C([O-])[O-].O=C([O-])[O-].[Co+3].[K+],> 100,> 100000
C1=NC(N(Cc2ccccc2)Cc2ccccc2)N(Cc2ccccc2)N1 (centres undefined),67.9,–

# System: RXF-631 renal
# Assay: NCI tumour cell line growth inhibition, 48 h
row,SMILES,TGI [µM]
1,O=C1c2ccc3c4ccccc4n(-c4ccccc4)c3c2C(=O)N1c1ccc(Cl)cc1,> 100
2,Cc1ccc2c(c1-c1ccccc1)C(=O)OC2,> 100
3,NC(CCc1ncc(C(=O)O)s1)C(=O)O (centres undefined),> 100
4,CSc1ccc2c(cc1=O)[C@@H](NC(=O)c1cc(O)c(O)c(O)c1)CCc1cc(O)c(O)c(O)c1-2,30.4
5,COc1cc(-c2nnc3n2NC=C(C(=O)O)S3)cc(OC)c1OC,> 100
6,C[P+](C)(C)c1ccccc1,> 100
7,O=C1c2ccccc2C(=O)N1C/C=N/NS(=O)(=O)c1ccc(Br)cc1,> 100
8,Cc1c(Cl)cccc1NC(=O)c1cccc([N+](=O)[O-])c1O,> 100
10,O=C1C=CC(=CC=C2C=CN(CCCCCCCCCCC(=O)NCCCCCCCCCCCC(=O)O)C=C2)C=C1,> 100
11,N#Cc1c(-c2ccco2)cc(-c2ccc(N)cc2)[nH]c1=O,> 100
12,C=CCC1(C)CCCCC1(O)CS(=O)c1ccccc1 (centres undefined),> 100
13,COc1cc(/C=N\O[Si](C)(C)C(C)(C)C)ccc1O[Si](C)(C)C(C)(C)C,71.6
14,O=C1C2[C@@H](C(=O)N1c1ccc(Br)cc1)C13C(=CC2([N+](=O)[O-])[C@@H]2C(=O)N(c4ccc(Br)cc4)C(=O)[C@@H]21)c1ccccc1N3c1ccccc1 (some centres undefined),> 100
15,CCOc1ccc(N=Cc2c3ccccc3nc3ccccc23)cc1,> 100
16,Nc1ccc(C2=N/C(=C\c3cccc(N)c3)C(=O)O2)cc1,> 100
17,C1=NC(N(Cc2ccccc2)Cc2ccccc2)N(Cc2ccccc2)N1 (centres undefined),56

# System: P388 leukemia
# Assay: NCI tumour cell line growth inhibition, 48 h
row,SMILES,TGI [µM]
1,COc1cc(/C=C/C(=O)Oc2ccccc2)ccc1C(=O)O/C=C/c1ccccc1,> 100
2,CS(=O)(=O)CS(=O)(=O)OCCCl,306

# System: HOP-18 NSCLC
# Assay: NCI tumour cell line growth inhibition, 48 h
SMILES,TGI [µM],GI50 [nM]
Cc1ccc(N2C(=O)N(c3ccc(C)cc3)C3(SC=NN3C)C2=O)cc1 (centres undefined),> 100,–
Cc1ccc2c(c1-c1ccccc1)C(=O)OC2,> 100,–
CCC[CH2][Sn]1([CH2]CCC)[O]CC(COc2c(Cl)cc(Cl)cc2Cl)[O]1 (centres undefined),2.71,1410
NC(CCc1ncc(C(=O)O)s1)C(=O)O (centres undefined),> 100,–
COc1cc(-c2nnc3n2NC=C(C(=O)O)S3)cc(OC)c1OC,> 100,–
C[P+](C)(C)c1ccccc1,> 100,–
O=C1c2ccccc2C(=O)N1C/C=N/NS(=O)(=O)c1ccc(Br)cc1,> 100,–
COc1cc(/C=C/C(=O)Oc2ccccc2)ccc1C(=O)O/C=C/c1ccccc1,> 100,–
NC(=O)c1cn(Cc2ccccc2)c(=O)n1Cc1ccccc1,> 100,–
Cc1c(Cl)cccc1NC(=O)c1cccc([N+](=O)[O-])c1O,> 28.9,–
CC1COS(=O)O1 (centres undefined),> 100,–
CC1CCC(C(C)(C)c2ccccc2)C(=O)C1 (centres undefined),> 100,–
N#Cc1c(-c2ccco2)cc(-c2ccc(N)cc2)[nH]c1=O,> 100,–
C=CCC1(C)CCCCC1(O)CS(=O)c1ccccc1 (centres undefined),> 100,–
C1COCCSC2=C(SCCO1)SC(=C1SC3=C(SCCOCCOCCS3)S1)S2,> 100,–
CS(=O)(=O)CS(=O)(=O)OCCCl,1380,–
COc1cc(/C=N\O[Si](C)(C)C(C)(C)C)ccc1O[Si](C)(C)C(C)(C)C,> 100,–
O=C1C2[C@@H](C(=O)N1c1ccc(Br)cc1)C13C(=CC2([N+](=O)[O-])[C@@H]2C(=O)N(c4ccc(Br)cc4)C(=O)[C@@H]21)c1ccccc1N3c1ccccc1 (some centres undefined),> 100,–
CCOC(=O)C1=C(Nc2ccc(Br)cc2)OCC1=O,> 100,–
CCOc1ccc(N=Cc2c3ccccc3nc3ccccc23)cc1,> 100,–
C1=NC(N(Cc2ccccc2)Cc2ccccc2)N(Cc2ccccc2)N1 (centres undefined),45.7,–

# From PubChem BioAssay (NCI)
